“And” between values parts separate entries of the source, which are not always exact repeats. Equal values may be shown once.
Test system: TWEAK-Fn14 signalling pathway, BRV5 cells
Experiment: Cell-based screening of individual peptides, gene expression microarray in TWEAK-stimulated BRV5 cells
Set-up: species or system human
Settings: 6 h; for regulation of probe genes by individual peptides: BRV5 + TWEAK 25 ng/mL, peptides 450 µM; for BIRC2 mRNA expression (normalized to NARS2) / HSP90B1 mRNA expression (normalized to NARS2) / IL6 mRNA expression (normalized to NARS2) / JUN mRNA expression (normalized to NARS2) / MAP4K4 mRNA expression (normalized to NARS2) / MAPK14 mRNA expression (normalized to NARS2) / NFKB2 mRNA expression (normalized to NARS2) / TNFRSF12A mRNA expression (normalized to NARS2) / TRAF2 mRNA expression (normalized to NARS2) / BIRC2 expression Z-Score / HSP90B1 expression Z-Score / IL6 expression Z-Score / JUN expression Z-Score / MAP4K4 expression Z-Score / MAPK14 expression Z-Score / NFKB2 expression Z-Score / TNFRSF12A expression Z-Score / TRAF2 expression Z-Score: individual peptides, BRV5 + TWEAK; for BIRC2 mRNA expression (normalized to NARS2) / HSP90B1 mRNA expression (normalized to NARS2) / IL6 mRNA expression (normalized to NARS2) / JUN mRNA expression (normalized to NARS2) / MAP4K4 mRNA expression (normalized to NARS2) / MAPK14 mRNA expression (normalized to NARS2) / NFKB2 mRNA expression (normalized to NARS2) / TNFRSF12A mRNA expression (normalized to NARS2) / TRAF2 mRNA expression (normalized to NARS2): 450 µM; for BIRC2 expression Z-Score / HSP90B1 expression Z-Score / IL6 expression Z-Score / JUN expression Z-Score / MAP4K4 expression Z-Score / MAPK14 expression Z-Score / NFKB2 expression Z-Score / TNFRSF12A expression Z-Score / TRAF2 expression Z-Score: normalized to NARS2
From the text: Pool 1 and 5 were therefore deconstructed to assess the effect of individual peptides and their activity on same cell-based screening. Pools 1 and 5 were composed of peptides 45, 46, 42, 3, 49, 11, and 13; and of peptides 1, 9, 30, 35, 41, 43, 7, and 14, respectively. As before, and shown in Figure 4B, the level of expression of probe genes on TWEAK-stimulated (T) BRV5 cells is overall higher than on non-stimulated (NT) one. […] The structural model of peptides 43, 30, 35 and 49 bound to TWEAK can be seen in Figure 5 and Supplementary Materials Figures S4–S6, respectively.
Three different cell lines were used in this study: BRV5, MDA-MB 435 (435-P), and HT29. The BRV5 is a highly metastatic brain cell line, obtained in one of our laboratories by primary culture from a brain of a nude mouse inoculated with human 435-Br1 brain metastatic cells, as previously described and used as a model to test the peptides in cell cultures. […] The triple negative 435-P cell line is a useful human breast cancer model that expresses both epithelial and melanocytic markers, and was included as the parental cell from which 435-Br1 metastatic variant was initially originated (both cell lines kindly provided by Dr Fabra at IDIBELL Institute, Hospitalet de Llobregat, Spain). Finally, HT29 human colon carcinoma cells obtained from the European Type Culture Collection (ECACC 91072201) were used as a positive control of TWEAK dependent Fn14 over-expressing cells to evaluate TWEAK-Fn14 axis of brain metastatic variants.
Appropriate cell culture conditions were established as the controls needed in the expression of genes with and without peptides and with and without TWEAK activation, both as pools and individually (see Supplementary Materials Figure S2). The protocol started with the seeding of 125,000 cells/well in 500 µL of culture media supplemented with 10% fetal bovine serum (CM+FBS10%) in 24-well dishes for 24 h before removing FBS (CM-FBS). After overnight starvation in CM-FBS culture, different peptide treatment conditions (at final concentration of 450 µM) were established in the presence or absence of TWEAK (25 ng/mL final concentration) (Peprotech EC, Ltd., London, UK). Some cells were treated with peptides at a single, unique, initial dose (time 0) while other were treated with repeated doses to account for the effect cell-culture degradation. These include a repeated treatment every hour (i.e., […]), every two hours (time 0, 2, and 4) and every three hours (time 0 and 3)—see Supplementary Materials Figure S2 for diagrammatic depiction. At time 6 (after six hours) cells were lysed and RNA extracted for transcriptomic analyses (see next). Cell were culture for six hours as this was the time needed to achieve the highest upregulation of the TWEAK-Fn14 axis upon TWEAK treatment as shown in previous time-course RT-PCR experiments (see Figure 2).
RNA from cells was extracted 6 h after treatments by direct lysis on the well. The RNeasy Micro kit (Qiagen, Hilden, Germany) was used to isolate total RNA from cell lysate following manufacturer’s protocols including an additional step of digestion with DNase I (Qiagen, Hilden, Germany). Total RNA concentration was measured in a NanoDrop 1000 spectrophotometer (Thermo Scientific, Waltham, MA, USA). The RNA extracted from treated and untreated cells (see above) was used as a proxy for gene expression.
The quantitative RT-PCR was performed using Fluidigm Dynamic Array FlexSix array with the specific primers for gene expression (Delta Genes Assays, Wet lab tested on Dynamic Array IFC) designed to RefSeq for detection by pPCR EvaGreen assay (Dynamic Array FlexSix, Fluidigm Corporation). Each Flex Six IFC has a total of six independent partitions. Each partition has a 12 × 12 format (12 assay inlets and 12 sample inlets) and will be run independently as a separate experimental run. […]

Row | Sequence | regulation of probe genes by individual peptides | BIRC2 mRNA expression (normalized to NARS2) (mean of replicate columns) | HSP90B1 mRNA expression (normalized to NARS2) (mean of replicate columns) | IL6 mRNA expression (normalized to NARS2) (mean of replicate columns) | JUN mRNA expression (normalized to NARS2) (mean of replicate columns) | MAP4K4 mRNA expression (normalized to NARS2) (mean of replicate columns) | MAPK14 mRNA expression (normalized to NARS2) (mean of replicate columns) | NFKB2 mRNA expression (normalized to NARS2) (mean of replicate columns) | TNFRSF12A mRNA expression (normalized to NARS2) (mean of replicate columns) | TRAF2 mRNA expression (normalized to NARS2) (mean of replicate columns) | BIRC2 mRNA expression (normalized to NARS2) (replicate column 1) | HSP90B1 mRNA expression (normalized to NARS2) (replicate column 1) | IL6 mRNA expression (normalized to NARS2) (replicate column 1) | JUN mRNA expression (normalized to NARS2) (replicate column 1) | MAP4K4 mRNA expression (normalized to NARS2) (replicate column 1) | MAPK14 mRNA expression (normalized to NARS2) (replicate column 1) | NFKB2 mRNA expression (normalized to NARS2) (replicate column 1) | TNFRSF12A mRNA expression (normalized to NARS2) (replicate column 1) | TRAF2 mRNA expression (normalized to NARS2) (replicate column 1) | BIRC2 mRNA expression (normalized to NARS2) (replicate column 2) | further results
1 | SGVSTAQLD [Peptide 4] | induced a higher level of expression of the gene | 0.6267 | 2.423 | 0.001966 | 0.1025 | 0.2128 | 0.1993 | 0.04458 | 0.01499 | 0.01397 | 0.6069 | 2.308 | 0.001514 | 0.09341 | 0.1972 | 0.1927 | 0.04237 | 0.01676 | 0.01481 | 0.6465 | HSP90B1 mRNA expression (normalized to NARS2) (replicate column 2): 2.538; IL6 mRNA expression (normalized to NARS2) (replicate column 2): 0.002418; JUN mRNA expression (normalized to NARS2) (replicate column 2): 0.1116; MAP4K4 mRNA expression (normalized to NARS2) (replicate column 2): 0.2284; MAPK14 mRNA expression (normalized to NARS2) (replicate column 2): 0.2059; NFKB2 mRNA expression (normalized to NARS2) (replicate column 2): 0.04678; TNFRSF12A mRNA expression (normalized to NARS2) (replicate column 2): 0.01322; TRAF2 mRNA expression (normalized to NARS2) (replicate column 2): 0.01313; BIRC2 expression Z-Score (listed as P4): 0.4721; HSP90B1 expression Z-Score (listed as P4): 0.3256; IL6 expression Z-Score (listed as P4): 0.0669 and 0.06688; JUN expression Z-Score (listed as P4): 0.0589 and 0.05892; MAP4K4 expression Z-Score (listed as P4): 0.6937; MAPK14 expression Z-Score (listed as P4): -0.0192 and -0.01918; NFKB2 expression Z-Score (listed as P4): 0.3908; TNFRSF12A expression Z-Score (listed as P4): -0.6289; TRAF2 expression Z-Score (listed as P4): -0.2666
2 | TKGGGTADA [Peptide 3] | induced a higher level of expression of the gene | 0.7197 | 3.909 | 0.003239 | 0.1441 | 0.2389 | 0.2205 | 0.05335 | 0.03024 | 0.009427 | 0.6856 | 3.773 | 0.004016 | 0.1498 | 0.2356 | 0.2165 | 0.05516 | 0.03211 | 0.009734 | 0.7537 | HSP90B1 mRNA expression (normalized to NARS2) (replicate column 2): 4.045; IL6 mRNA expression (normalized to NARS2) (replicate column 2): 0.002462; JUN mRNA expression (normalized to NARS2) (replicate column 2): 0.1383; MAP4K4 mRNA expression (normalized to NARS2) (replicate column 2): 0.2421; MAPK14 mRNA expression (normalized to NARS2) (replicate column 2): 0.2245; NFKB2 mRNA expression (normalized to NARS2) (replicate column 2): 0.05153; TNFRSF12A mRNA expression (normalized to NARS2) (replicate column 2): 0.02838; TRAF2 mRNA expression (normalized to NARS2) (replicate column 2): 0.00912; BIRC2 expression Z-Score (listed as P3): 1.1157 and 1.116; HSP90B1 expression Z-Score (listed as P3): 2.9702 and 2.97; IL6 expression Z-Score (listed as P3): 1.1687 and 1.169; JUN expression Z-Score (listed as P3): 0.5369; MAP4K4 expression Z-Score (listed as P3): 1.3444 and 1.344; MAPK14 expression Z-Score (listed as P3): 0.3511; NFKB2 expression Z-Score (listed as P3): 1.2258 and 1.226; TNFRSF12A expression Z-Score (listed as P3): 1.1044 and 1.104; TRAF2 expression Z-Score (listed as P3): -0.4866
